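All cell lines were grown in 96-well plates and treated with compound for 48 hours. At the GI50, growth is halved.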 Active and inactive are the calls of the source. No stated cut-off is given here; in the data, active = GI50 up to about 1.1 µM and inactive = higher.
Tests used:
Test in all cases: DTP human tumour cell line panel, 48 h
[1] = tested on: SNB-75
[2] = tested on: K562
[3] = tested on: LOX IMVI
[4] = tested on: NCI-H460
[5] = tested on: IGROV-1
[6] = tested on: SR
[7] = tested on: COLO 205
[8] = tested on: TK-10
[9] = tested on: KM12
[10] = tested on: 786-0
[11] = tested on: UO-31
[12] = tested on: ACHN
[13] = tested on: UACC-62
[14] = tested on: CCRF-CEM
[15] = tested on: HOP-62
[16] = tested on: MOLT-4
[17] = tested on: SK-OV-3
[18] = tested on: UACC-257
[19] = tested on: MCF7

| SMILES | GI50 [1] | GI50 [2] | GI50 [3] | GI50 [4] | GI50 [5] | GI50 [6] | GI50 [7] | GI50 [8] | GI50 [9] | GI50 [10] | GI50 [11] | GI50 [12] | GI50 [13] | GI50 [14] | GI50 [15] | GI50 [16] | GI50 [17] | GI50 [18] | GI50 [19] |
| --- | --- | --- | --- | --- | --- | --- | --- | --- | --- | --- | --- | --- | --- | --- | --- | --- | --- | --- | --- |
| Cc1cc(NS(=O)(=O)c2ccc(Nc3c4ccccc4nc4c(C(=O)NCCN(C)C)ccc(Cl)c34)cc2)no1 | 2.76 µM (inactive) | 2.99 µM (inactive) | 1.48 µM (inactive) | 1.36 µM (inactive) | 3.56 µM (inactive) | 0.37 µM (active) | 2.45 µM (inactive) | 13.9 µM (inactive) | 4.91 µM (inactive) | 4.41 µM (inactive) | 3.23 µM (inactive) | 2.43 µM (inactive) | 2.35 µM (inactive) | 1.28 µM (inactive) | 4.57 µM (inactive) | 0.28 µM (active) |  |  |  |
| CC[As](CC)SCC1OC(OC(C)=O)C(OC(C)=O)C(OC(C)=O)C1OC(C)=O (stereo not given) | 25.5 µM (inactive) | 4.38 µM (inactive) | 15.2 µM (inactive) | 16.8 µM (inactive) | 18.3 µM (inactive) | 12 µM (inactive) | 2.42 µM (inactive) | 16.6 µM (inactive) | 19.5 µM (inactive) | 14.4 µM (inactive) | 16.2 µM (inactive) | 17.4 µM (inactive) | 13.9 µM (inactive) | 3.05 µM (inactive) | 20.8 µM (inactive) | 16.5 µM (inactive) | 15.8 µM (inactive) | 14.2 µM (inactive) |  |
| COC(O)C(=O)c1c2c(cc3c1CC1(Cc4cc5c(cc4C1)CCC5)C3)CCC2 (stereo not given) | 17.1 µM (inactive) | 13.2 µM (inactive) | 7.13 µM (inactive) | 23.6 µM (inactive) | 13 µM (inactive) | 3.99 µM (inactive) |  | 17.7 µM (inactive) |  | 14 µM (inactive) | 18.7 µM (inactive) | 15.7 µM (inactive) |  | 4.33 µM (inactive) | 15.9 µM (inactive) | 15.8 µM (inactive) | 17.4 µM (inactive) | 18.7 µM (inactive) | 16 µM (inactive) |
| Nc1nc(NC2C=C(CO)C(O)C2O)c([N+](=O)[O-])c(=O)[nH]1 (stereo not given) | > 100 µM (inactive) | > 100 µM (inactive) | > 100 µM (inactive) | > 100 µM (inactive) | > 100 µM (inactive) | > 100 µM (inactive) | > 100 µM (inactive) | > 100 µM (inactive) | > 100 µM (inactive) | > 100 µM (inactive) | > 100 µM (inactive) | > 100 µM (inactive) | > 100 µM (inactive) | > 100 µM (inactive) | > 100 µM (inactive) | > 100 µM (inactive) | > 100 µM (inactive) | > 100 µM (inactive) |  |
| COC(=O)/C=C1\C(=O)Nc2ccc(Br)cc21 | 1.99 µM (inactive) | 1.77 µM (inactive) | 0.804 µM (active) | 2.25 µM (inactive) | 1.75 µM (inactive) | 0.925 µM (active) | 1.67 µM (inactive) | 1.56 µM (inactive) | 2.53 µM (inactive) | 1.48 µM (inactive) | 2.19 µM (inactive) | 1.71 µM (inactive) | 1.56 µM (inactive) | 0.296 µM (active) | 2.06 µM (inactive) | 0.962 µM (active) | 3.53 µM (inactive) | 1.37 µM (inactive) | 1.46 µM (inactive) |
| O=c1c2ccccc2[nH]c2ccc3c(Cl)n[nH]c3c12 | 42.9 µM (inactive) | 34.3 µM (inactive) | 20.8 µM (inactive) | 31.8 µM (inactive) | 35 µM (inactive) | 36.1 µM (inactive) | 36.4 µM (inactive) | 23.8 µM (inactive) | 32.9 µM (inactive) | 34.1 µM (inactive) | 26.7 µM (inactive) | 27.8 µM (inactive) | 35 µM (inactive) | 56.9 µM (inactive) | 29.1 µM (inactive) | 9.95 µM (inactive) | > 100 µM (inactive) | 37.2 µM (inactive) |  |
| C/C(=C\COP(=O)(O)OP(=O)(O)O)CCCOCc1ccccc1 | > 100 µM (inactive) | > 100 µM (inactive) | > 100 µM (inactive) | > 100 µM (inactive) | > 100 µM (inactive) | > 100 µM (inactive) | > 100 µM (inactive) | > 100 µM (inactive) | > 100 µM (inactive) | > 100 µM (inactive) | > 100 µM (inactive) | > 100 µM (inactive) | > 100 µM (inactive) | < 0.01 µM (active) | > 100 µM (inactive) | > 100 µM (inactive) | > 100 µM (inactive) | 38.4 µM (inactive) | > 100 µM (inactive) |
| CC1CCN(C(C)C)P(=S)(Cc2ccccc2)O1 (stereo not given) |  | 70.1 µM (inactive) | > 100 µM (inactive) | > 100 µM (inactive) | > 100 µM (inactive) | > 100 µM (inactive) | > 100 µM (inactive) | 75 µM (inactive) | > 100 µM (inactive) | > 100 µM (inactive) | > 100 µM (inactive) | > 100 µM (inactive) | 16.7 µM (inactive) |  | > 100 µM (inactive) | > 100 µM (inactive) | > 100 µM (inactive) | 97.3 µM (inactive) | > 100 µM (inactive) |
| CC1=C(/C(C)=N/NC(=O)c2ccccc2O)C(C)C(/C(C)=N/NC(=O)c2ccccc2O)=C(C)N1 | 11.6 µM (inactive) | 16.6 µM (inactive) | 18.3 µM (inactive) | 18 µM (inactive) | 10.6 µM (inactive) | 23.8 µM (inactive) |  | 18.8 µM (inactive) | 31.4 µM (inactive) | 18.5 µM (inactive) | 15.5 µM (inactive) | 16.3 µM (inactive) | 6.5 µM (inactive) |  | 25.1 µM (inactive) | 5.09 µM (inactive) | 38.1 µM (inactive) | 23.5 µM (inactive) |  |
| C[C@]12CC[C@H]3[C@@H](CC=C4C[C@@H](N5CCCC5)CC[C@@]43C)[C@@H]1C/C(=C\c1ccc([N+](=O)[O-])cc1)[C@@H]2O |  |  | 16.4 µM (inactive) | 28.1 µM (inactive) | 14.8 µM (inactive) | 1.88 µM (inactive) | 16.6 µM (inactive) | 17.5 µM (inactive) | 16.2 µM (inactive) | 5.77 µM (inactive) | 15.1 µM (inactive) | 15.9 µM (inactive) | 15.8 µM (inactive) | 3.21 µM (inactive) | 17.9 µM (inactive) | 0.942 µM (active) | 15.9 µM (inactive) | 16.4 µM (inactive) | 20.7 µM (inactive) |
| COc1cc(C=O)c(-c2cc(OC)c(OC)cc2C=O)cc1OC | > 100 µM (inactive) | 36.7 µM (inactive) | 13.7 µM (inactive) | 90.4 µM (inactive) | > 100 µM (inactive) | 24.3 µM (inactive) | > 100 µM (inactive) | > 100 µM (inactive) | > 100 µM (inactive) | > 100 µM (inactive) | 64.6 µM (inactive) | > 100 µM (inactive) | > 100 µM (inactive) | 30.1 µM (inactive) | > 100 µM (inactive) | 50.6 µM (inactive) | > 100 µM (inactive) | > 100 µM (inactive) |  |
| NC(Cc1ccccc1)C(=O)OCN1C(=O)C2C3C=CC(C2C1=O)C1C2C(=O)N(COC(=O)C(N)Cc4ccccc4)C(=O)C2C31 (stereo not given) | 22.9 µM (inactive) | 25.8 µM (inactive) | 21.4 µM (inactive) | 14.4 µM (inactive) | 35.6 µM (inactive) | 27.7 µM (inactive) | 17.5 µM (inactive) | 49.3 µM (inactive) | 21.3 µM (inactive) | 21.1 µM (inactive) |  | 23.1 µM (inactive) | 23 µM (inactive) | 21.1 µM (inactive) | > 100 µM (inactive) |  | 50.2 µM (inactive) | 28.8 µM (inactive) |  |
| CC(=O)OC1C=CC2CCN3C(=O)c4cc5c(cc4[C@H]1C23)OCO5 (stereo not given in full) | > 100 µM (inactive) | > 100 µM (inactive) | > 100 µM (inactive) | > 100 µM (inactive) | > 100 µM (inactive) | > 100 µM (inactive) | > 100 µM (inactive) | > 100 µM (inactive) | > 100 µM (inactive) | > 100 µM (inactive) | > 100 µM (inactive) | > 100 µM (inactive) | > 100 µM (inactive) | > 100 µM (inactive) | > 100 µM (inactive) | > 100 µM (inactive) | > 100 µM (inactive) | > 100 µM (inactive) |  |
| C[N+](C)(C)CC1CCC(C[N+](C)(C)C)C1=NO (stereo not given) | > 100 µM (inactive) | > 100 µM (inactive) | > 100 µM (inactive) |  | > 100 µM (inactive) | > 100 µM (inactive) | > 100 µM (inactive) |  | > 100 µM (inactive) | > 100 µM (inactive) | > 100 µM (inactive) | > 100 µM (inactive) | > 100 µM (inactive) | > 100 µM (inactive) | > 100 µM (inactive) | > 100 µM (inactive) | > 100 µM (inactive) | > 100 µM (inactive) |  |
| CCCCCCCCCCCCCCCCCCOCC(C[N+]1(C)CCC(O)CC1)OCC (stereo not given) | 3.95 µM (inactive) | 4.17 µM (inactive) |  |  | 5.13 µM (inactive) | 1.78 µM (inactive) | 3.38 µM (inactive) | 3.92 µM (inactive) | 1.84 µM (inactive) | 4.18 µM (inactive) | 11.9 µM (inactive) |  | 5.27 µM (inactive) | 1.97 µM (inactive) | 4.23 µM (inactive) | 2.87 µM (inactive) | 2.92 µM (inactive) | 10.9 µM (inactive) |  |
| O=c1oc2c(O)c(O)c(O)c3c(=O)oc4c(O)c(O)cc1c4c23 [FLAVELLAGIC ACID] | 47.6 µM (inactive) | 25.6 µM (inactive) | 18 µM (inactive) | > 100 µM (inactive) | > 100 µM (inactive) | > 100 µM (inactive) | 99.5 µM (inactive) | > 100 µM (inactive) | > 100 µM (inactive) | 62.8 µM (inactive) | 38.4 µM (inactive) | 73.1 µM (inactive) | 57.3 µM (inactive) | 29.2 µM (inactive) | > 100 µM (inactive) | 25.9 µM (inactive) | > 100 µM (inactive) | > 100 µM (inactive) |  |

— ChEMBL document CHEMBL1201862, “PubChem BioAssay data set” (2004)
